Source: publication PMC3100585 (The Annals of pharmacotherapy, 2010)
Where “and” joins values, the source holds several entries; their conditions need not be identical. Equal entries are not always repeated.

What was measured:
CYP3A4 [1] = experiment: Midazolam pharmacokinetics; conditions: for Midazolam AUC, median (dose normalized): 6 patients; for half-life: human, plasma, intravenous, 0.0145 mg/kg, Half-life of midazolam, median
mouse NR1I2 = biological target: T1, mouse NR1I2 (Mus musculus, UniProt O54915); experiment: Luciferase reporter gene assay, full-length mouse NR1I2; assay type: cell-based; conditions: HepG2 cells, 24 hours; vinblastine 150-4800 ng/mL; PCN 50 μM
T1 sequence (O54915 1-431): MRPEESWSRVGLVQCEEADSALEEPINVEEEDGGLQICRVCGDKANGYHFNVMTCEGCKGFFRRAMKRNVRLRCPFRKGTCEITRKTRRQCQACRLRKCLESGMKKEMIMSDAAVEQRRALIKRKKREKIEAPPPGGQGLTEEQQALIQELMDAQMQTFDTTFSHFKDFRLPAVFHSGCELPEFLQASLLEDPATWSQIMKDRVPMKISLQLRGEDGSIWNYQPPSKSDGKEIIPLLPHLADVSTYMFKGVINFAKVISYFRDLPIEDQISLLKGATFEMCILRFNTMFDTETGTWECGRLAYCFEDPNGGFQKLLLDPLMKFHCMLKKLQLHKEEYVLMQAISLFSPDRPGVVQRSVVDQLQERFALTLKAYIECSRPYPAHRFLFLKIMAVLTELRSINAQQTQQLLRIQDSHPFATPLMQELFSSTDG

human NR1I2 = biological target: T2, human NR1I2 (Homo sapiens, UniProt O75469); conditions: HepG2 cells, 24 hours; vinblastine 150-4800 ng/mL; rifampin 10 μM
T2 sequence (O75469 1-434): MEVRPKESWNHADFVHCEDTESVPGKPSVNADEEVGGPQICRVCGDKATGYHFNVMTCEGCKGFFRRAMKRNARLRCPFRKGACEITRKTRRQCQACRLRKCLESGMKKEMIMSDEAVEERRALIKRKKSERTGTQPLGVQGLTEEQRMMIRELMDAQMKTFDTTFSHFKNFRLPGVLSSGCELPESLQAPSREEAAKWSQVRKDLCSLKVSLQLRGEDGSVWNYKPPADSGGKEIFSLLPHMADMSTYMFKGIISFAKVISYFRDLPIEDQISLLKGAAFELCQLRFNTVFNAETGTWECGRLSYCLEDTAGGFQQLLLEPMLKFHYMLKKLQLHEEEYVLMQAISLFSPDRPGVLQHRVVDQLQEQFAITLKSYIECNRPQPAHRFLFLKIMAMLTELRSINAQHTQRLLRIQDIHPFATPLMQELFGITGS

mouse NR1I3 = biological target: T3, mouse NR1I3 (Mus musculus, UniProt O35627); conditions: NIH3T3 cells, 24 hours; vinblastine 150-4800 ng/mL
T3 sequence (O35627 1-358): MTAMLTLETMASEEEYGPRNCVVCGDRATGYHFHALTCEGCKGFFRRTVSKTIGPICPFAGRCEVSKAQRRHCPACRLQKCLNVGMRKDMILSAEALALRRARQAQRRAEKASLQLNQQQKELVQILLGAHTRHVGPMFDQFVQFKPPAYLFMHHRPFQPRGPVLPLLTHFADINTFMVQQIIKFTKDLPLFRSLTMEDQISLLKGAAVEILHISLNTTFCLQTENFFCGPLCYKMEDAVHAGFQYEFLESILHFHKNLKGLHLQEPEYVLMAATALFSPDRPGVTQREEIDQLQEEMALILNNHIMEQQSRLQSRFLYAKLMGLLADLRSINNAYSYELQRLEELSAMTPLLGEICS

human NR1I3 = biological target: T4, human NR1I3 (Homo sapiens, UniProt Q14994); conditions: NIH3T3 cells, 24 hours; vinblastine 150-4800 ng/mL
T4 sequence (Q14994 1-348 isoform Q14994-2): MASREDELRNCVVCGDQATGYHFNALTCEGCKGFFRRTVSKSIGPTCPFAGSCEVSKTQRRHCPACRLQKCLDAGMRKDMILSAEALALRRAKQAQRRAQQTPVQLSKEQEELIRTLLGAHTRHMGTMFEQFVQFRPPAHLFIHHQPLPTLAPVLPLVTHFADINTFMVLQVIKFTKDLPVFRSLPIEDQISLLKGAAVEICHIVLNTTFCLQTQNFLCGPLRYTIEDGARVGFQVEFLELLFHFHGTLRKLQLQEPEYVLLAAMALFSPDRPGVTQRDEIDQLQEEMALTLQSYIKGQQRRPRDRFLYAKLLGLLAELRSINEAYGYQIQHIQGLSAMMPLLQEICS
T4 sequence (P28700 1-467 partner): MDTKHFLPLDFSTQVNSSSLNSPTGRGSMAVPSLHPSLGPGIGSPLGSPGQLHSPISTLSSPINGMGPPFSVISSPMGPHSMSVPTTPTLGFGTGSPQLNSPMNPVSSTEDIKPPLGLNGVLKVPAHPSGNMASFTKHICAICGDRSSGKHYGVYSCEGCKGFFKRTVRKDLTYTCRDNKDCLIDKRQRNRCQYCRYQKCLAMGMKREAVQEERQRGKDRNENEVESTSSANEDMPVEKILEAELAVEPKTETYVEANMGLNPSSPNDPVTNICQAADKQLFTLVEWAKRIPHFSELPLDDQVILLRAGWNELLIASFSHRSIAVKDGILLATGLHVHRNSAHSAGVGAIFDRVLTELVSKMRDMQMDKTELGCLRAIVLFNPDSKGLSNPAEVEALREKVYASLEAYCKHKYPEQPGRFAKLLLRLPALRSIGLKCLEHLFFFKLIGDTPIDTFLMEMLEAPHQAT

CYP3A4 [2] = conditions: cited from earlier work
[3] = test system: CYP3A4 protein in HepG2 cells; experiment: CYP3A4 protein expression by Western blot in HepG2 cells; assay type: cell-based, human; conditions: 48 hours, vinblastine 300 ng/mL and above (range 150-4800 ng/mL)

## Cc1ncc2n1-c1ccc(Cl)cc1C(c1ccccc1F)=NC2 [midazolam]
CYP3A4 [1]; day 1 of cycle 1
  Midazolam AUC, median (dose normalized): 46.4 ng·h/mL per mg
  half-life: 2.54 h
CYP3A4 [1]; day 1 of cycle 4, after repeat vinblastine
  Midazolam AUC, median (dose normalized): 31.0 ng·h/mL per mg
CYP3A4 [1]; day 1 of cycle 4
  half-life: 3.08 h
CYP3A4 [1]; individual patients, cycle 4 vs cycle 1, after repeat vinblastine
  % ↑ Midazolam Cl: 51.7% and 35.9% and 216.7% and 2.5% and 46.9% and 6.9%
CYP3A4 [1]; one patient, midazolam on 5 occasions over 1.3 years, end of period
  Midazolam clearance relative to value prior to treatment with vinblastine: 3.6 fold

## C/C=C/C[C@@H](C)C(=O)[C@H]1C(=O)N[C@@H](C(C)C)C(=O)N(C)CC(=O)N(C)[C@@H](CC(C)C)C(=O)N[C@@H](C(C)C)C(=O)N(C)[C@@H](CC(C)C)C(=O)N[C@@H](C)C(=O)N[C@H](C)C(=O)N(C)[C@@H](CC(C)C)C(=O)N(C)[C@@H](CC(C)C)C(=O)N(C)[C@@H](C(C)C)C(=O)N1C [valspodar]
Mouse NR1I2
  Increase in transcriptional (reporter) activity of mouse NR1I2: Increased activity of the reporter was not observed
Human NR1I2
  Increase in transcriptional (reporter) activity of human NR1I2: Increased activity of the reporter was not observed
Mouse NR1I3
  Effect on transcriptional activity of mouse NR1I3: Increased activity of the reporter was not observed
Human NR1I3
  Effect on transcriptional activity of human NR1I3: Increased activity of the reporter was not observed
CYP3A4 [2]
  CYP3A4 inhibition: very weak CYP3A4 inhibitor

## CC[C@]1(O)C[C@@H]2CN(CCc3c([nH]c4ccccc34)[C@@](C(=O)OC)(c3cc4c(cc3OC)N(C)[C@H]3[C@@](O)(C(=O)OC)[C@H](OC(C)=O)[C@]5(CC)C=CCN6CC[C@]43[C@@H]65)C2)C1 [vinblastine, Vinblastine]
[3]
  CYP3A4 protein expression compared to DMSO-treated control cells: substantially increased CYP3A4 protein expression
